Source: PubChem BioAssay AID2060491 (Molecular Pharmacology Branch, DTP, NCI, 2025)

Test system: 857933-349-R-J2-PDC complex spheroids, viability
Experiment: Anticancer human tumor 857933-349-R-J2-PDC patient-derived colon adenocarcinoma cell line growth inhibition [GQUAD]
Conditions: for IC50: curve of first compound; for viability, T/C: stronger effect = lower value
In short: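 Tumor cells were grown as complex spheroids with HUVEC endothelial cells and mesenchymal stem cells as stroma. G-quadruplex stabilizers were combined with targeted agents over half-log dilutions from near the clinical Cmax, or from 10 microM.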

[1] = second compound 0.0316 µM, first compound 0.0316 µM
[2] = second compound 0.0316 µM, first compound 0.1 µM
[3] = second compound 0.0316 µM, first compound 0.316 µM
[4] = second compound 0.0316 µM, first compound 1 µM
[5] = second compound 0.0316 µM, first compound 3.16 µM
[6] = second compound 0.0316 µM, first compound 10 µM
[7] = second compound 0.1 µM, first compound 0.0316 µM
[8] = second compound 0.1 µM, first compound 0.1 µM
[9] = second compound 0.1 µM, first compound 0.316 µM
[10] = second compound 0.1 µM, first compound 1 µM
[11] = second compound 0.1 µM, first compound 3.16 µM
[12] = second compound 0.1 µM, first compound 10 µM
[13] = second compound 0.316 µM, first compound 0.0316 µM
[14] = second compound 0.316 µM, first compound 0.1 µM
[15] = second compound 0.316 µM, first compound 0.316 µM
[16] = second compound 0.316 µM, first compound 1 µM
[17] = second compound 0.316 µM, first compound 3.16 µM
[18] = second compound 0.316 µM, first compound 10 µM
[19] = second compound 1 µM, first compound 0.0316 µM
[20] = second compound 1 µM, first compound 0.1 µM
[21] = second compound 1 µM, first compound 0.316 µM
[22] = second compound 1 µM, first compound 1 µM
[23] = second compound 1 µM, first compound 3.16 µM
[24] = second compound 1 µM, first compound 10 µM
[25] = second compound 3.16 µM, first compound 0.0316 µM
[26] = second compound 3.16 µM, first compound 0.1 µM
[27] = second compound 3.16 µM, first compound 0.316 µM
[28] = second compound 3.16 µM, first compound 1 µM
[29] = second compound 3.16 µM, first compound 3.16 µM
[30] = second compound 3.16 µM, first compound 10 µM
[31] = second compound 10 µM, first compound 0.0316 µM
[32] = second compound 10 µM, first compound 0.1 µM
[33] = second compound 10 µM, first compound 0.316 µM
[34] = second compound 10 µM, first compound 1 µM
[35] = second compound 10 µM, first compound 3.16 µM
[36] = second compound 10 µM, first compound 10 µM
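Also: spheroids exposed to compounds for one week before readout.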
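For viability, T/C in this document: percent viability relative to vehicle DMSO wells taken as 100%.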

`CCCS(=O)(=O)Nc1ccc(F)c(C(=O)c2c[nH]c3ncc(-c4ccc(Cl)cc4)cc23)c1F` + Cc1[nH]c2ccc(F)cc2c1-c1nc2c3cccnc3c3ncccc3c2[nH]1 showed an IC50 (second compound 0.0316 µM) of 5.43 µM, an IC50 (second compound 0.1 µM) of 5.23 µM and an IC50 (second compound 0.316 µM) of 5.23 µM. The IC50 (second compound 1 µM) was 5.11 µM, the IC50 (second compound 3.16 µM) was 5.01 µM and the IC50 (second compound 10 µM) was 4.74 µM. For the same molecule, the viability, T/C [1] was 101%, the viability, T/C [2] was 98.1% and the viability, T/C [3] was 94.7%. It also gave a viability, T/C [4] of 115%, a viability, T/C [5] of 89.8% and a viability, T/C [6] of 4.88%. The viability, T/C [7] was 97.8%, the viability, T/C [8] was 97.7% and the viability, T/C [9] was 102%. It also gave a viability, T/C [10] of 105%, a viability, T/C [11] of 85% and a viability, T/C [12] of 4.75%. For the same molecule, the viability, T/C [13] was 97.8%, the viability, T/C [14] was 97.5% and the viability, T/C [15] was 96%. The viability, T/C [16] was 94.3%, the viability, T/C [17] was 84.4% and the viability, T/C [18] was 5.8%. It also gave a viability, T/C [19] of 97.1%, a viability, T/C [20] of 85.1% and a viability, T/C [21] of 90.2%. The viability, T/C [22] was 82.8%, the viability, T/C [23] was 81.1% and the viability, T/C [24] was 6.53%. It also gave a viability, T/C [25] of 84.4%, a viability, T/C [26] of 74.2% and a viability, T/C [27] of 79.1%. It also gave a viability, T/C [28] of 74.2%, a viability, T/C [29] of 82.9% and a viability, T/C [30] of 6.5%. It also gave a viability, T/C [31] of 82.7%, a viability, T/C [32] of 85.2% and a viability, T/C [33] of 80.5%. For the same molecule, the viability, T/C [34] was 84.5%, the viability, T/C [35] was 73.7% and the viability, T/C [36] was 6.22%.

`CC(=O)O[C@H]1C(=O)[C@@]2(C)[C@H]([C@H](OC(=O)c3ccccc3)[C@]3(O)C[C@H](OC(=O)[C@H](O)[C@@H](NC(=O)c4ccccc4)c4ccccc4)C(C)=C1C3(C)C)[C@]1(OC(C)=O)CO[C@@H]1C[C@@H]2O` + CN(C)c1ccc(Nc2c3ccc(NC(=O)CCN4CCCC4)cc3nc3cc(NC(=O)CCN4CCCC4)ccc23)cc1 was tested, and the IC50 (second compound 0.0316 µM) was 0.0663 µM, the IC50 (second compound 0.1 µM) was 0.0627 µM and the IC50 (second compound 0.316 µM) was 0.0621 µM. For the same molecule, the IC50 (second compound 1 µM) was 0.0602 µM, the IC50 (second compound 3.16 µM) was 0.0551 µM and the IC50 (second compound 10 µM) was < 0.0316 µM. The viability, T/C [1] was 75%, the viability, T/C [2] was 36% and the viability, T/C [3] was 22.3%. It also gave a viability, T/C [4] of 23.4%, a viability, T/C [5] of 23.6% and a viability, T/C [6] of 27.1%. For the same molecule, the viability, T/C [7] was 75.5%, the viability, T/C [8] was 33.7% and the viability, T/C [9] was 22.2%. It also gave a viability, T/C [10] of 23%, a viability, T/C [11] of 22.6% and a viability, T/C [12] of 26.4%. The viability, T/C [13] was 70.9%, the viability, T/C [14] was 35.2% and the viability, T/C [15] was 19.6%. For the same molecule, the viability, T/C [16] was 20.5%, the viability, T/C [17] was 24% and the viability, T/C [18] was 27.2%. The viability, T/C [19] was 71.6%, the viability, T/C [20] was 33% and the viability, T/C [21] was 22.1%. For the same molecule, the viability, T/C [22] was 21.3%, the viability, T/C [23] was 26.2% and the viability, T/C [24] was 26.8%. The viability, T/C [25] was 67.4%, the viability, T/C [26] was 31.6% and the viability, T/C [27] was 26%. It also gave a viability, T/C [28] of 24.5%, a viability, T/C [29] of 27.2% and a viability, T/C [30] of 30.9%. It also gave a viability, T/C [31] of 54.9%, a viability, T/C [32] of 43.9% and a viability, T/C [33] of 38.6%. It also gave a viability, T/C [34] of 33.4%, a viability, T/C [35] of 34.3% and a viability, T/C [36] of 41.4%.

For `CC(C)n1c(=O)n(C)c2cnc3cc(F)c(-c4ccc(OCCCN5CCCCC5)nc4)cc3c21` + CN(C)c1ccc(Nc2c3ccc(NC(=O)CCN4CCCC4)cc3nc3cc(NC(=O)CCN4CCCC4)ccc23)cc1, the IC50 (second compound 0.0316 µM) was > 10 µM, the IC50 (second compound 0.1 µM) was > 10 µM and the IC50 (second compound 0.316 µM) was > 10 µM. For the same molecule, the IC50 (second compound 1 µM) was > 10 µM, the IC50 (second compound 3.16 µM) was > 10 µM and the IC50 (second compound 10 µM) was > 10 µM. The viability, T/C [1] was 108%, the viability, T/C [2] was 96.8% and the viability, T/C [3] was 108%. For the same molecule, the viability, T/C [4] was 104%, the viability, T/C [5] was 105% and the viability, T/C [6] was 102%. The viability, T/C [7] was 103%, the viability, T/C [8] was 101% and the viability, T/C [9] was 103%. For the same molecule, the viability, T/C [10] was 105%, the viability, T/C [11] was 104% and the viability, T/C [12] was 102%. The viability, T/C [13] was 103%, the viability, T/C [14] was 103% and the viability, T/C [15] was 104%. The viability, T/C [16] was 99.1%, the viability, T/C [17] was 115% and the viability, T/C [18] was 98.3%. The viability, T/C [19] was 101%, the viability, T/C [20] was 92.3% and the viability, T/C [21] was 103%. The viability, T/C [22] was 95%, the viability, T/C [23] was 103% and the viability, T/C [24] was 94%. For the same molecule, the viability, T/C [25] was 90.7%, the viability, T/C [26] was 83.5% and the viability, T/C [27] was 93.1%. For the same molecule, the viability, T/C [28] was 85.5%, the viability, T/C [29] was 98.1% and the viability, T/C [30] was 70.3%. It also gave a viability, T/C [31] of 72.8%, a viability, T/C [32] of 74.7% and a viability, T/C [33] of 76%. For the same molecule, the viability, T/C [34] was 74.4%, the viability, T/C [35] was 74.9% and the viability, T/C [36] was 63.7%.
